The TGI is the concentration at which net growth stops. By GI50 is commonly meant the concentration that inhibits growth by half.

The values that follow come from PubChem BioAssay (NCI).

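Grown in 96-well plates, cells were treated for 48 hours with each compound at five concentrations. Insufficient inhibition: endpoint recorded as highest concentration tested. The concentration for 50% growth inhibition is given as GI50. TGI denotes the concentration required for complete inhibition of growth.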 A value given as a limit tells only on which side of the number the result lay.

Holding throughout (assay): DTP human tumour cell line panel, 48 h
Experiment [1] has as its system 786-0 renal.
The subject of experiment [2] is HOP-62 NSCLC.
Experiment [3] has as its system OVCAR-3 ovarian.
Experiment [4] relates to RXF 393 renal.
Experiment [5] has as its system SF-539 CNS.
In experiment [6] the test system is SK-MEL-2 melanoma.
The test system of experiment [7] is SK-MEL-5 melanoma.
In experiment [8] the test system is M14 melanoma.
Experiment [9] has as its system SNB-75 CNS.
Experiment [10] has as its system UO-31 renal.

For `CCC12CCCN(Cc3ccccc3)C1c1c(n(C)c3ccccc13)CC2` (configuration not stated), the TGI in experiment [1] is over 253 µM; in [2], over 253 µM; in experiment [3], 215 µM; in [4], over 253 µM; in experiment [5], over 253 µM; in experiment [6], over 253 µM. In experiment [7], this compound came in with a TGI of 184 µM.

Turning to `COc1ccc(/C=C\[N+](=O)[O-])cc1OC`, the GI50 was 1.9 µM in experiment [1]; 12 µM in experiment [2]; 1.82 µM in experiment [8]; 3 µM in experiment [3]; 1.81 µM in experiment [4]; 2.64 µM in experiment [6]. For the same compound, the figures for the GI50 in experiment [7], in experiment [9] and in [10] were 3.72 µM, 10.6 µM and 1.85 µM, respectively. The total growth inhibition concentration (TGI) turned out to be 3.87 µM in experiment [1]; 29.2 µM in experiment [2]; 4.18 µM in experiment [8]; 8.73 µM in [3]; 3.43 µM in experiment [4]; 7.39 µM in [6]. The TGI is 14.4 µM in experiment [7], 29.8 µM in experiment [9] and 3.87 µM in [10].

`N=C(N)C1CN(CCc2c[nH]c3ccccc23)C(=O)NC1=O` (configuration not stated): the total growth inhibition concentration (TGI) in [1], in [2], in [8], in experiment [3], in experiment [7] and in experiment [9] was over 100 µM throughout. Also, in experiment [10], the concentration for total growth inhibition (TGI) was over 100 µM.

As for `Cc1cn2c(=O)c3ncn(C4OC(CO)C(O)C4O)c3n(C)c2n1` (configuration not stated), the TGI in experiment [1], in experiment [8], in [3], in experiment [4], in [5] and in [6] was over 100 µM throughout. Also, the total growth inhibition concentration (TGI) in experiment [7], in experiment [9] and in experiment [10] was over 100 µM throughout.

As for `CC12C/C(=C\c3ccccc3)C(=O)C3C1CCCC32`, the TGI in experiment [1], in experiment [2], in [8], in experiment [3], in experiment [5] and in experiment [6] was over 100 µM each time. Moreover, the total growth inhibition concentration (TGI) in [7], in experiment [9] and in experiment [10] was over 100 µM each time.

`Cc1cc(Nc2ccc(NC(=O)c3ccc(Nc4ccnc5ccccc45)cc3)cc2)nc(N)n1`: the GI50 in experiment [1] was 3.06 µM; in experiment [8] it was 7.62 µM; in experiment [3], 1.43 µM; in experiment [4], 2.76 µM; in experiment [6], 5.56 µM; in experiment [7], 5.23 µM. Also, the GI50 was 12.2 µM in experiment [9] and 50.9 µM in experiment [10]. Also, the TGI is over 100 µM in [1]; over 100 µM in experiment [8]; 4.26 µM in [3]; 9.82 µM in experiment [4]; 94.7 µM in experiment [6]; 49.9 µM in [7]. Moreover, the TGI was 43 µM in experiment [9] and over 100 µM in experiment [10].

Regarding `CC(C)C(CCl)NC(=O)c1cccc(C(=O)N[C@H](CCl)C(C)C)n1` (stereo in doubt), the TGI in experiment [1], in experiment [2], in experiment [8], in [3], in experiment [4] and in experiment [5] was over 100 µM throughout. Also, the TGI in experiment [7], in experiment [9] and in experiment [10] was over 100 µM each time.

Take `CSc1nc(=O)n(CCC#N)nc1SC`: the TGI is 44.6 µM in [1]; over 100 µM in [2]; 39.9 µM in experiment [8]; 32 µM in experiment [3]; over 100 µM in experiment [5]; 39.8 µM in experiment [6]. For the same compound, the figures for the TGI in experiment [7], in [9] and in [10] were 43 µM, over 100 µM and over 100 µM, respectively.

`CSC1=Nc2c(c(C)c(C)n2COC(CO)CO)C2=NC(=O)C(C)N12` (configuration not stated): the GI50 in [1], in experiment [2], in experiment [3], in experiment [4], in experiment [5] and in experiment [6] was over 100 µM throughout. For the same compound, the GI50 in experiment [7] was over 100 µM; in experiment [9] it was 26.3 µM; in experiment [10], over 100 µM. The TGI in experiment [1], in experiment [2], in experiment [3], in [4], in experiment [5] and in [6] was over 100 µM throughout. The total growth inhibition concentration (TGI) in experiment [7], in experiment [9] and in experiment [10] was over 100 µM each time.

Turning to `CC(C)N(C(=O)C12C3C4C1C1C4(C#N)C3C12C#N)C(C)C` (configuration not stated), the TGI in experiment [1], in [2], in experiment [8], in experiment [3], in experiment [4] and in experiment [5] was over 100 µM throughout. The TGI in [7] and in [10] was over 100 µM each time.

Consider `CC1(C)CC(=O)C(C=NC(=S)c2ccccc2)=C(O)C1`, for which the concentration for total growth inhibition (TGI) in [1], in experiment [2], in experiment [8], in experiment [3], in experiment [5] and in experiment [6] was over 100 µM throughout. Also, the TGI in experiment [7], in experiment [9] and in [10] was over 100 µM throughout.

Consider `[N-]=[N+]=NC1(Cc2ccccc2)C(=O)c2cccc3c2N(CCC3)C1=O` (configuration not stated), for which the TGI in experiment [1], in experiment [2], in [8], in experiment [4], in experiment [5] and in [6] was over 100 µM in each case. For the same compound, the TGI in experiment [7], in [9] and in experiment [10] was over 100 µM throughout.

For `O=[N+]([O-])c1cccc(C2=NN(c3ccccc3)C[N+](c3ccc(Br)cc3)=N2)c1`, the total growth inhibition concentration (TGI) in [1], in [2], in experiment [8], in [4], in experiment [5] and in experiment [6] was over 100 µM in each case. The TGI in experiment [7], in [9] and in experiment [10] was over 100 µM each time.
